Measured values from the NIST ThermoML archive (doi:10.1016/j.jct.2005.02.014).
Numbers after ± are expanded uncertainties.

Assay: molar heat capacity at constant pressure
Conditions: 101.33 kPa, Crystal

[Gd+3].[Gd+3].[O-2].[O-2].[O-2] [gadolinium sesquioxide]
molar heat capacity at constant pressure (270.36 K): 100.9 ± 0.58 J/K/mol | molar heat capacity at constant pressure (272.53 K): 101.2 ± 0.58 J/K/mol | molar heat capacity at constant pressure (273.33 K): 101.3 ± 0.58 J/K/mol | molar heat capacity at constant pressure (275.01 K): 101.6 ± 0.58 J/K/mol | molar heat capacity at constant pressure (276.31 K): 101.8 ± 0.58 J/K/mol | molar heat capacity at constant pressure (277.49 K): 102 ± 0.58 J/K/mol | molar heat capacity at constant pressure (279.28 K): 102.3 ± 0.58 J/K/mol | molar heat capacity at constant pressure (279.96 K): 102.3 ± 0.58 J/K/mol | molar heat capacity at constant pressure (280 K): 102.3 ± 0.58 J/K/mol | molar heat capacity at constant pressure (282.25 K): 102.7 ± 0.58 J/K/mol | molar heat capacity at constant pressure (282.44 K): 102.6 ± 0.58 J/K/mol | molar heat capacity at constant pressure (284.92 K): 103 ± 0.58 J/K/mol | molar heat capacity at constant pressure (285.23 K): 103.1 ± 0.58 J/K/mol | molar heat capacity at constant pressure (287.4 K): 103.4 ± 0.58 J/K/mol | molar heat capacity at constant pressure (288.2 K): 103.5 ± 0.58 J/K/mol | molar heat capacity at constant pressure (289.88 K): 103.8 ± 0.58 J/K/mol | molar heat capacity at constant pressure (291.17 K): 104 ± 0.58 J/K/mol | molar heat capacity at constant pressure (292.35 K): 104.1 ± 0.58 J/K/mol | molar heat capacity at constant pressure (294.15 K): 104.4 ± 0.58 J/K/mol | molar heat capacity at constant pressure (294.83 K): 104.5 ± 0.58 J/K/mol | molar heat capacity at constant pressure (297.13 K): 105 ± 0.58 J/K/mol | molar heat capacity at constant pressure (297.32 K): 105 ± 0.58 J/K/mol | molar heat capacity at constant pressure (298.15 K): 105.1 ± 0.58 J/K/mol | molar heat capacity at constant pressure (299.8 K): 105.2 ± 0.58 J/K/mol | molar heat capacity at constant pressure (300 K): 105.2 ± 0.58 J/K/mol | molar heat capacity at constant pressure (300.11 K): 105.2 ± 0.58 J/K/mol | molar heat capacity at constant pressure (302.28 K): 105.4 ± 0.58 J/K/mol | molar heat capacity at constant pressure (303.09 K): 105.6 ± 0.58 J/K/mol | molar heat capacity at constant pressure (304.77 K): 105.6 ± 0.58 J/K/mol | molar heat capacity at constant pressure (304.91 K): 105.8 ± 0.58 J/K/mol | molar heat capacity at constant pressure (306.07 K): 106 ± 0.58 J/K/mol | molar heat capacity at constant pressure (307.26 K): 106 ± 0.58 J/K/mol | molar heat capacity at constant pressure (307.89 K): 106.2 ± 0.58 J/K/mol | molar heat capacity at constant pressure (309.06 K): 106.4 ± 0.58 J/K/mol | molar heat capacity at constant pressure (309.74 K): 106.4 ± 0.58 J/K/mol | molar heat capacity at constant pressure (310.86 K): 106.6 ± 0.58 J/K/mol | molar heat capacity at constant pressure (312.04 K): 106.7 ± 0.58 J/K/mol | molar heat capacity at constant pressure (312.23 K): 106.7 ± 0.58 J/K/mol | molar heat capacity at constant pressure (313.84 K): 106.8 ± 0.58 J/K/mol | molar heat capacity at constant pressure (314.72 K): 106.9 ± 0.58 J/K/mol | molar heat capacity at constant pressure (315.03 K): 107 ± 0.58 J/K/mol | molar heat capacity at constant pressure (316.82 K): 107.2 ± 0.58 J/K/mol | molar heat capacity at constant pressure (317.21 K): 107.2 ± 0.58 J/K/mol | molar heat capacity at constant pressure (318.02 K): 107.3 ± 0.58 J/K/mol | molar heat capacity at constant pressure (319.7 K): 107.4 ± 0.58 J/K/mol | molar heat capacity at constant pressure (319.8 K): 107.6 ± 0.58 J/K/mol | molar heat capacity at constant pressure (320 K): 107.6 ± 0.58 J/K/mol | molar heat capacity at constant pressure (321.01 K): 107.7 ± 0.58 J/K/mol | molar heat capacity at constant pressure (322.19 K): 107.8 ± 0.58 J/K/mol | molar heat capacity at constant pressure (322.77 K): 108 ± 0.58 J/K/mol | molar heat capacity at constant pressure (324 K): 108.1 ± 0.58 J/K/mol | molar heat capacity at constant pressure (324.68 K): 108.2 ± 0.58 J/K/mol | molar heat capacity at constant pressure (325.75 K): 108.3 ± 0.58 J/K/mol | molar heat capacity at constant pressure (326.99 K): 108.4 ± 0.58 J/K/mol | molar heat capacity at constant pressure (327.18 K): 108.3 ± 0.58 J/K/mol | molar heat capacity at constant pressure (329.67 K): 108.6 ± 0.58 J/K/mol | molar heat capacity at constant pressure (331.72 K): 108.9 ± 0.58 J/K/mol | molar heat capacity at constant pressure (334.69 K): 109.2 ± 0.58 J/K/mol | molar heat capacity at constant pressure (337.67 K): 109.5 ± 0.58 J/K/mol | molar heat capacity at constant pressure (340 K): 109.7 ± 0.58 J/K/mol | molar heat capacity at constant pressure (340.65 K): 109.8 ± 0.58 J/K/mol | molar heat capacity at constant pressure (343.63 K): 110 ± 0.58 J/K/mol | molar heat capacity at constant pressure (346.62 K): 110.3 ± 0.58 J/K/mol | molar heat capacity at constant pressure (349.6 K): 110.6 ± 0.58 J/K/mol | molar heat capacity at constant pressure (352.59 K): 110.8 ± 0.58 J/K/mol | molar heat capacity at constant pressure (355.58 K): 111.1 ± 0.67 J/K/mol | molar heat capacity at constant pressure (358.57 K): 111.4 ± 0.67 J/K/mol | molar heat capacity at constant pressure (360 K): 111.5 ± 0.67 J/K/mol | molar heat capacity at constant pressure (361.56 K): 111.6 ± 0.67 J/K/mol | molar heat capacity at constant pressure (364.55 K): 111.9 ± 0.67 J/K/mol | molar heat capacity at constant pressure (367.55 K): 112 ± 0.67 J/K/mol | molar heat capacity at constant pressure (370.55 K): 112.2 ± 0.67 J/K/mol | molar heat capacity at constant pressure (373.55 K): 112.5 ± 0.67 J/K/mol | molar heat capacity at constant pressure (376.55 K): 112.7 ± 0.67 J/K/mol | molar heat capacity at constant pressure (379.55 K): 113 ± 0.67 J/K/mol | molar heat capacity at constant pressure (380 K): 113 ± 0.67 J/K/mol | molar heat capacity at constant pressure (382.56 K): 113.2 ± 0.67 J/K/mol | molar heat capacity at constant pressure (385.56 K): 113.4 ± 0.67 J/K/mol | molar heat capacity at constant pressure (388.57 K): 113.6 ± 0.67 J/K/mol | molar heat capacity at constant pressure (391.59 K): 113.8 ± 0.67 J/K/mol | molar heat capacity at constant pressure (394.6 K): 113.9 ± 0.67 J/K/mol | molar heat capacity at constant pressure (397.62 K): 114 ± 0.67 J/K/mol | molar heat capacity at constant pressure (400.65 K): 114.2 ± 0.67 J/K/mol
